# Measurements reported in BindingDB's records for patent US12414952 (Merck Sharp & Dohme, 2025).
# Target: Adenosine receptor A2a (Homo sapiens, UniProt P29274)
# Assay: A2a binding affinity assay C
# Protocol: Method (C): Measurement of A2a Binding Affinity Using an Alternative Radioligand Binding AssayMembranes used in this procedure were made by washing cell cultures twice with DPBS buffer (Dulbecco's phosphate buffered saline without calcium and magnesium, ThermoFisher Scientific, Cat. No. A1285601), and harvesting the cell cultures by mechanical scraping. The cells were collected by centrifugation and re-suspended in 10 mM HEPES, pH 7.4 containing 0.1 mM benzamidine (Sigma, Cat. No. B6506) and 0.1 mM PMSF (phenylmethylsulfonyl fluoride, Sigma, Cat. No. 10837091001). Cells were freeze-thawed twice in a dry ice/ethanol bath and homogenized with 25 to 30 strokes in a glass dounce homogenizer (Wheaton, Cat. No. 357546). Membranes were pelleted at 40,000×g for 20 min at 4° C. and re-suspended in assay buffer (5 mM HEPES, pH 7.4, 5 mM MgCl2; supplemented with 0.1 mM benzamidine) at a protein concentration of 2.6 mg/mL. Protein concentration was determined by the Bio-Rad method (Bio-Rad, Cat. No. 5000002). […] After normalization to total and non-specific binding, the percent effect at each compound concentration was calculated. The plot of percent effect versus the log of compound concentration was analyzed electronically using a 4-parameter logistic fit based on the Levenberg-Marquardt algorithm to generate IC50 values.
# Chain of Adenosine receptor A2a (P29274 whole entry): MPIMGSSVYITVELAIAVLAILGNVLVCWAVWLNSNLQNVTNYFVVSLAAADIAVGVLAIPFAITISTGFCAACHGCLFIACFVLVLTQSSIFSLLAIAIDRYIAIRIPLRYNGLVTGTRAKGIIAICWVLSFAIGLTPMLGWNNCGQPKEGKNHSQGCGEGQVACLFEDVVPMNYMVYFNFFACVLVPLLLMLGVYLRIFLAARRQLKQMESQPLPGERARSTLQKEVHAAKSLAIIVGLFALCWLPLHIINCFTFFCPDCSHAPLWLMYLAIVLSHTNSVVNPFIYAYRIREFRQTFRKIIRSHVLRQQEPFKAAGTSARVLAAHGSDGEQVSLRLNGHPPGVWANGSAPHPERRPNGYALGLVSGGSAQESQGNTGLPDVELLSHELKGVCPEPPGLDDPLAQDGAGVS
smiles,measurement,value
"Nc1nc(-c2ccccc2)c(C2CC2)c2nc(CCN3CC(F)(F)C3)nn12 [US12414952, Example 20.6]",IC50,0.122 µM
